Assay [1] concerns PGE2 production from IL-1β-stimulated MG-63 cells. Nature of the assay: Suppressing action on PGE2 production from IL-1β-stimulated MG-63 cells. Type of assay: cell-based. Conditions: Homo sapiens, IL-1β 1 ng/ml, 18 hours, read-out: PGE2 production suppression ratio. Summed up: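 Human osteosarcoma MG-63 cells (2×10^4/well) switched to 0.5% FBS medium, treated with compound, then stimulated with IL-1β at 1 ng/ml final for 18 h. Supernatant PGE2 measured by EIA; suppression ratio calculated against stimulated and unstimulated wells.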

Assay [2] relates to LTB4 production from IgE-stimulated RBL-2H3 cells. Kind of assay: Suppressing action on LTB4 production from IgE-stimulated RBL-2H3 cells. Type of assay: cell-based. Conditions: Rattus norvegicus, 10 min, IgE/DNP-BSA stimulated RBL-2H3 cells, read-out: LTB4 production suppression ratio. Summed up:
(§1)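 Rat RBL-2H3 mastocytoma cells, sensitized 30 min with anti-DNP-BSA IgE, then given test compound in 0.5% FBS medium and stimulated with DNP-BSA (100 ng/ml final). Supernatant PGD2 and LTB4 were measured by EIA after 10 min. Suppression ratio is calculated against unstimulated and stimulant-only controls.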

In assay [3] the test system is zymosan-stimulated footpad edema. Kind of assay: Mouse zymosan-stimulated footpad edema reaction. The class given is in vivo. The settings on record: ICR female mice, oral 0.1 to 500 mg/kg, compared with positive control group. An outline of the steps: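 Female ICR mice (6–7 weeks, n=8) dosed orally at 0.1 to 500 mg/kg in 0.5% methylcellulose; 1 h later zymosan (1 mg/ml, 0.02 ml) injected s.c. into right hind footpad. Edema volume at 1 and 2 h gave AUC to 2 h; suppression (%) calculated against positive control AUC.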

The subject of assay [4] is PGD2 production from IgE-stimulated RBL-2H3 cells. Nature of the assay: Suppressing action on PGD2 production from IgE-stimulated RBL-2H3 cells. The class given is cell-based. Conditions: Rattus norvegicus, 10 min, IgE/DNP-BSA stimulated RBL-2H3 cells, read-out: PGD2 production suppression ratio. An outline of the steps: as §1
The test system of assay [5] is IgE-stimulated footpad edema. Nature of the assay: Mouse IgE-stimulated footpad edema reaction. The class given is in vivo. Conditions: C57BL/6 male mice, oral 0.1 to 500 mg/kg, compared with positive control group. The protocol: 4. Suppressing Effect on Mouse IgE-stimulated Footpad Edema Reaction
Suppression on footpad edema caused by IgE antibody as an allergic stimulant was studied by the following method. Groups of C57BL/6 male mice (9- to 11-week old) each consisting of five mice were used for the test. Anti-DNP-BSA IgE serum was subcutaneously administered in a volume of 20 μl to right hind leg footpad of each mouse one day before the test. A test compound was suspended or dissolved in purified water containing 0.5% methylcellulose and orally administered to the test animals at 0.1 to 500 mg/0.2 ml/kg. To the control group, purified water containing 0.5% methylcellulose was administered in a similar manner, which was not added with the test compound. Two hours after the administration of the test compound, 0.2 ml of a solution of DNP-BSA dissolved in physiological saline (Otsuka Pharmaceutical) at 2.5 μg/ml was intravenously administered. The thickness of right hind leg footpad was measured by using a digital thickness gauge (MITSUTOYO) 10, 15, 20, and 30 minutes after the administration of DNP-BSA. A difference of the thickness of footpad measured above and the thickness before the administration of the test compound measured beforehand was regarded as a thickness of edema.
For the thickness of the edema at 10, 15, 20 and 30 minutes after the DNP-BSA administration, a graph was prepared indicating time in abscissa and the edema thickness in ordinate, and edema thickness AUC […] was obtained by calculation according to the following equation. Edema thickness AUC (mm·minute)=1/2×10×A+5×(A+B)/2+5×(B+C)/2+10×(C+D)/2 • A: Edema thickness 10 minutes after DNP-BSA administration • B: Edema thickness 15 minutes after DNP-BSA administration • C: Edema thickness 20 minutes after DNP-BSA administration • D: Edema thickness 30 minutes after DNP-BSA administration
A suppressing ratio on edema of a test compound was obtained by calculation in accordance with the following equation. Edema suppression ratio (%)=[1−B/A]×100 • A: Edema thickness AUC of positive control • B: Edema thickness AUC of test compound administered group (2) Measurement Results

This is an account of results in US6867320B2, “Substituted phenylalkanoic acid derivatives and use thereof” (Asahi Kasei Pharma Corporation, priority 2002, dated 2005).

As for `O=C(O)CCc1ccc(OCC2CCCCC2)c(-c2ccc3cc(O)ccc3c2)c1` [Compound 002, 3-[4-cyclohexylmethyloxy-3-(6-hydroxynaphthalen-2-yl)phenyl]propionic acid], the inhibition at 0.4 µM in assay [1], in assay [2] and in assay [4] was at least 50% each time. The “suppression of footpad edema caused by zymosan” value (from here on “suppression … by zymosan”) in assay [3] was “suppressed footpad edema”. For the same molecule, in assay [5], the “suppression of footpad edema caused by IgE stimulation” value (from here on “suppression … by IgE stimulation”) is given as “suppressed the footpad edema”.
As for `Nc1ccc2cc(-c3cc(CCC(=O)O)ccc3OCC3CCCC3)ccc2c1` [Compound 012, 3-[3-(6-aminonaphthalen-2-yl)-4-cyclopentylmethyloxyphenyl]propionic acid], the inhibition at 0.4 µM in assay [1], in assay [2] and in assay [4] was at least 50% in each case. Also, in assay [3], the “suppression … by zymosan” value is “suppressed footpad edema”. Also, the “suppression … by IgE stimulation” value in assay [5] is “suppressed the footpad edema”.
As for `Nc1ccc2ccc(-c3cc(CCC(=O)O)ccc3OCC3CCCC3)cc2c1` [Compound 014, 3-[3-(7-aminonaphthalen-2-yl)-4-cyclopentylmethyloxyphenyl]propionic acid], the inhibition at 0.4 µM in assay [1], in assay [2] and in assay [4] was at least 50% each time. Moreover, the “suppression … by IgE stimulation” value in assay [5] is on record as “suppressed the footpad edema”.
As for `O=C(O)CCc1ccc(OCC2CCCC2)c(-c2ccc3ccccc3c2)c1` [Compound 039, 3-[4-cyclopentylmethyloxy-3-(naphthalen-2-yl)phenyl]propionic acid], the inhibition at 0.4 µM in assay [1], in assay [2] and in assay [4] was at least 50% throughout. Besides, the “suppression … by zymosan” value in assay [3] is “suppressed footpad edema”. Further, the “suppression … by IgE stimulation” value in assay [5] was “suppressed the footpad edema”.
In the case of `O=C(O)CCc1ccc(OCc2ccccc2-c2ccccc2)c(-c2ccc3[nH]ccc3c2)c1` [Compound 140, 3-{4-[(biphenyl-2-yl)methyloxy]-3-(1H-indol-5-yl)phenyl}propionic acid], the inhibition at 0.4 µM in assay [1] was at least 50%. In addition, the “suppression … by zymosan” value in assay [3] is given as “suppressed footpad edema”. Also, the “suppression … by IgE stimulation” value in assay [5] is reported as “suppressed the footpad edema”.
With `O=C(O)CCc1ccc(OCc2cccc(Cl)c2Cl)c(-c2ccc3[nH]ccc3c2)c1` [Compound 160, 3-[4-(2,3-dichlorophenylmethyloxy)-3-(1H-indol-5-yl)phenyl]propionic acid], the inhibition at 0.4 µM in assay [1], in assay [2] and in assay [4] was at least 50% throughout. In addition, the “suppression … by IgE stimulation” value in assay [5] was “suppressed the footpad edema”.
Take `O=C(O)CCc1ccc(OCc2ccc(Cl)c(Cl)c2)c(-c2ccc3[nH]ccc3c2)c1` [Compound 166, 3-[4-(3,4-dichlorophenylmethyloxy)-3-(1H-indol-5-yl)phenyl]propionic acid]: the inhibition at 0.4 µM in assay [1], in assay [2] and in assay [4] was at least 50% throughout. Besides, the “suppression … by IgE stimulation” value in assay [5] was “suppressed the footpad edema”.
Turning to `CCC(CC)COc1ccc(CCC(=O)O)cc1-c1ccc2[nH]ccc2c1` [Compound 183, 3-[4-(2-ethylbutyloxy)-3-(1H-indol-5-yl)phenyl]propionic acid], the inhibition at 0.4 µM in assay [1] is at least 50%. Also, the “suppression … by zymosan” value in assay [3] is listed as “suppressed footpad edema”. In addition, in assay [5], the “suppression … by IgE stimulation” value is recorded as “suppressed the footpad edema”.
On to `O=C(O)CCc1ccc(OCc2cccc3ccccc23)c(-c2ccc3[nH]ccc3c2)c1` [Compound 190, 3-{3-(1H-indol-5-yl)-4-[(naphthalen-1-yl)methyloxy]phenyl}propionic acid], for which the inhibition at 0.4 µM in assay [1], in assay [2] and in assay [4] was at least 50% in each case. Moreover, in assay [5], the “suppression … by IgE stimulation” value is given as “suppressed the footpad edema”.
Regarding `Cc1ccccc1CCOc1ccc(CCC(=O)O)cc1-c1ccc2[nH]ccc2c1` [Compound 200, 3-{3-(1H-indol-5-yl)-4-[2-(2-methylphenyl)ethyloxy]phenyl}propionic acid], the inhibition at 0.4 µM in assay [1] was at least 50%. In addition, the “suppression … by zymosan” value in assay [3] is given as “suppressed footpad edema”. In assay [5], the “suppression … by IgE stimulation” value is reported as “suppressed the footpad edema”.
Taken in the same sequence, the figures for `Cc1cccc(CCOc2ccc(CCC(=O)O)cc2-c2ccc3[nH]ccc3c2)c1` [Compound 202, 3-{3-(1H-indol-5-yl)-4-[2-(3-methylphenyl)ethyloxy]phenyl}propionic acid] were at least 50%, “suppressed footpad edema” and “suppressed the footpad edema”.
Taken in the same sequence, the figures for `COc1ccccc1CCOc1ccc(CCC(=O)O)cc1-c1ccc2[nH]ccc2c1` [Compound 205, 3-{3-(1H-indol-5-yl)-4-[2-(2-methoxyphenyl)ethyloxy]phenyl}propionic acid] were at least 50%, “suppressed footpad edema” and “suppressed the footpad edema”.
For `O=C(O)CCc1ccc(OCCc2ccccc2Cl)c(-c2ccc3[nH]ccc3c2)c1` [Compound 209, 3-{4-[2-(2-chlorophenyl)ethyloxy]-3-(1H-indol-5-yl)phenyl}propionic acid] the same measures were at least 50%, “suppressed footpad edema” and “suppressed the footpad edema”.
Turning to `O=C(O)CCc1ccc(OCCc2ccccc2C(F)(F)F)c(-c2ccc3[nH]ccc3c2)c1` [Compound 214, 3-[3-(1H-indol-5-yl)-4-{2-[2-(trifluoromethyl)phenyl]-ethyloxy}phenyl]propionic acid], the inhibition at 0.4 µM in assay [1], in assay [2] and in assay [4] was at least 50% in each case. In assay [5], the “suppression … by IgE stimulation” value was “suppressed the footpad edema”.
Take `O=C(O)CCc1ccc(OCCc2ccc3ccccc3c2)c(-c2ccc3[nH]ccc3c2)c1` [Compound 217, 3-{4-[2-(naphthalen-2-yl)ethyloxy]-3-(1H-indol-5-yl)phenyl}propionic acid]: the inhibition at 0.4 µM in assay [1], in assay [2] and in assay [4] was at least 50% in each case. In assay [5], the “suppression … by IgE stimulation” value was “suppressed the footpad edema”.
As for `O=C(O)CCc1ccc(OCCOc2ccc(Cl)cc2)c(-c2ccc3[nH]ccc3c2)c1` [Compound 226, 3-{4-[2-(4-chlorophenyloxy)ethyloxy]-3-(1H-indol-5-yl)phenyl}propionic acid], the inhibition at 0.4 µM in assay [1] is at least 50%. The “suppression … by zymosan” value in assay [3] was “suppressed footpad edema”. Further, the “suppression … by IgE stimulation” value in assay [5] was “suppressed the footpad edema”.
On to `O=C(O)CCc1ccc(OCCSc2ccccc2)c(-c2ccc3[nH]ccc3c2)c1` [Compound 228, 3-{3-(1H-indol-5-yl)-4-[2-(phenylthio)ethyloxy]phenyl}propionic acid], for which the inhibition at 0.4 µM in assay [1] is at least 50%. The “suppression … by zymosan” value in assay [3] is on record as “suppressed footpad edema”. Further, the “suppression … by IgE stimulation” value in assay [5] is “suppressed the footpad edema”.
